Measured values reported in patent US5220029A, “Synthetic proteolytic substrate” (Vitek Systems, Inc., priority 1990, dated 1993).
“And” between values parts separate entries of the source, which are not always exact repeats. Identical values can stand only once.

What was measured:
trypsin [1] = assay: Determination of kinetic constants for the trypsin catalyzed hydrolysis (continuous assay); assay type: biochemical; settings: triplicate
Excerpt: (§1) The invention may be more thoroughly understood by reference to the included examples which describe the synthesis of amides of the type RCO-MBTH (Examples 1-15) and a continuous enzyme assay (Example 16). A disconintuous assay is illustrated in Example 17. Example 18 is a determination of the kinetic catalytic constant (kc) and binding constant (Km) for trypsin-catalyzed hydrolysis of an RCO-MBTH substrate by the continuous assay method.
Determination of the Kinetic Constants for the Trypsin Catalyzed Hydrolysis of N-(N-t-butoxycarbonyl)-L-Arginyl 3-methyl benzothiazolinone hydrazone (continuous assay)
In a one-cm. cuvette were mixed 3.0 mL of 0.02M tris buffer, pH 7.8, containing 0.02M 3-dimethylamino benzoic acid (DMAB) 0.1 mL of 0.065M potassium ferricyanide, and 0.1 mL of substrate (Boc-ARG-MBTH). The reaction was initiated by the addition of 0.1 mL of trypsin (2.33×10^-4 M in 0.1M pyrophosphate buffer, pH 8.3). Eight concentrations of substrate, from 9.98×10^-4 M to 7.8×10^-6 M, were assayed in triplicate. The increase in absorption at 590 nm was monitored continuously and the initial rates were determined. Under the conditions of the assay, a molar absorptivity of 57,000 was used to determine the concentration of the chromogen (MBTH-DMAB) produced by the hydrolysis of substrate. Table I contains the date used to determine the binding and kinetic constants (Km, kc).

trypsin [2] = assay: Continuous assay for trypsin (saturation kinetics), color development by DMAB/ferricyanide at 590 nm; assay type: biochemical; settings: 1 μg trypsin, 0.14M Tris pH 7.8, substrate 1.74×10^-3, 5.8×10^-4 and 3.9×10^-4 M in triplicate
Excerpt: as §1
Saturation kinetics for N-(N-benzyloxycarbonyl)glycyl-L-prolyl-L-arginyl 3-methyl-2-benzothiazolinone hydrazone with trypsin
A continuous assay for trypsin was performed, i.e., the oxidizing and coupling reagents for color development were included with the substrate in the reaction mixture so that color development may be monitored on a continuous basis with time. In this example the dye precursor is developed to a dye without destroying the enzymatic activity of the enzyme. The reaction was initiated by the addition of 0.1 mL of enzyme (10 μg/mL) to 0.9 mL of buffer solution containing substrate (Z-GLY-PRO-ARG-MBTH) and color developing reagents. […] The increases in absorbance at 590 nm were monitored continuously for 5 minutes and the initial rates determined. Using the molar absorptivity of 57,000 for the chromogen produced (MBTH-DMAB), the average rate of hydrolysis was calculated to be 4.43+0.1×10^-6 mol min^-1.

Row | Compound | 1/V (trypsin [1]; 1/s 100 M^-1) | 1/V (trypsin [1]; 1/s 200 M^-1) | 1/V (trypsin [1]; 1/s 401 M^-1) | 1/V (trypsin [1]; 1/s 802 M^-1) | 1/V (trypsin [1]; 1/s 1603 M^-1) | 1/V (trypsin [1]; 1/s 2305 M^-1) | 1/V (trypsin [1]; 1/s 6413 M^-1) | 1/V (trypsin [1]; 1/s 12826 M^-1) | average rate of hydrolysis (trypsin [2])
1 | Cn1c(=NNC(=O)[C@H](CCCNC(=N)N)NC(=O)OC(C)(C)C)sc2ccccc21 [Boc-ARG-MBTH, N-(N-t-butoxycarbonyl)-L-Arginyl 3-methyl benzothiazolinone hydrazone] | 0.000565 min/M and 0.000528 min/M and 0.000625 min/M | 0.000699 min/M and 0.000742 min/M | 0.000766 min/M and 0.00088 min/M and 0.000819 min/M | 0.001033 min/M and 0.00108 min/M and 0.001188 min/M | 0.001697 min/M and 0.001827 min/M | 0.002969 min/M and 0.003393 min/M | 0.005056 min/M and 0.00528 min/M | 0.009901 min/M and 0.009506 min/M | –
2 | Cn1c(=NNC(=O)[C@H](CCCNC(=N)N)NC(=O)[C@@H]2CCCN2C(=O)CNC(=O)OCc2ccccc2)sc2ccccc21 [Z-GLY-PRO-ARG-MBTH, N-(N-benzyloxycarbonyl)glycyl-L-prolyl-L-arginyl 3-methyl-2-benzothiazolinone hydrazone] | – | – | – | – | – | – | – | – | 4.43+0.1×10^-6 mol min^-1
